Values joined by “and” are separate entries in the source; they are usually repeats but may differ in a detail not shown here. Equal entries are not always repeated.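 Protocol summary: plate cells (96-well), add compound at 5 concentrations, incubate 48 h, interpolate endpoints linearly. GI50 = concentration required for 50% inhibition of growth. The concentration for full growth arrest is given as TGI.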
Legend:
Assay in all cases: NCI-60 cell line screen, 48 h
[1] = test system: SW-620 colon
[2] = test system: K-562 leukemia
[3] = test system: BT-549 breast
[4] = test system: SF-539 CNS
[5] = test system: TK-10 renal
[6] = test system: SK-MEL-2 melanoma
[7] = test system: SK-MEL-5 melanoma
[8] = test system: 786-0 renal
[9] = test system: SF-295 CNS
[10] = test system: MOLT-4 leukemia

COc1ccc(-c2nn(-c3cccc(Cl)c3)cc2-c2c(C#N)c(=O)n3[nH]c(-c4ccc(C)cc4)nc3c2C#N)cc1
GI50 [1]: 0.521 µM
TGI [1]: 2.73 µM
GI50 [2]: 1.43 µM
TGI [2]: > 50 µM
GI50 [3]: 3.79 µM
TGI [3]: 14.8 µM
GI50 [4]: 1.28 µM
TGI [4]: 3.61 µM
GI50 [5]: 2.01 µM
TGI [5]: 7.35 µM
GI50 [6]: 1.41 µM
TGI [6]: 4.02 µM
GI50 [7]: 6.06 µM
TGI [7]: 14 µM
GI50 [8]: 1.39 µM
TGI [8]: 5.93 µM
GI50 [9]: 1.2 µM
TGI [9]: 4.14 µM
GI50 [10]: 0.752 µM
TGI [10]: 5.46 µM

CCn1c2ccc(C(=O)CCCN(C)C)cc2c2cc(C(=O)CCCN(C)C)ccc21
TGI [1]: 3.76 µM
TGI [2]: 32.3 µM
TGI [3]: 12.4 µM
TGI [4]: 2.79 µM
TGI [5]: 13.2 µM
TGI [6]: 3.97 µM
TGI [7]: 17.1 µM
TGI [8]: 2.82 µM
TGI [9]: 14.5 µM
TGI [10]: > 100 µM

Cc1cccc(Cl)c1NC(=O)c1cnc(Nc2cc(N3CCOCC3)cc(N3CCOCC3)c2)s1
GI50 [1]: > 6.79 µM
TGI [1]: > 10 µM
GI50 [2]: 0.00147 µM
TGI [2]: > 10 µM
GI50 [3]: > 4.46 µM
TGI [3]: > 10 µM
GI50 [4]: 0.0366 µM
TGI [4]: > 6.8 µM
GI50 [5]: 0.00622 µM
TGI [5]: 0.0729 µM
GI50 [6]: > 5.25 µM
TGI [6]: > 10 µM
GI50 [7]: > 8.96 µM
TGI [7]: > 10 µM
GI50 [8]: 0.0183 µM
GI50 [9]: 0.154 µM
TGI [9]: > 10 µM
GI50 [10]: > 4.96 µM
TGI [10]: > 10 µM

O=C(/C=C/c1cccc([N+](=O)[O-])c1)c1ccc(O)c(CN2CCN(c3cc4c(cc3F)c(=O)c(C(=O)O)cn4C3CC3)CC2)c1
GI50 [1]: 1.1 µM
TGI [1]: 3.65 µM
GI50 [2]: 0.404 µM
TGI [2]: > 100 µM
GI50 [3]: 1.54 µM
TGI [3]: 3.31 µM
GI50 [4]: 1.19 µM
TGI [4]: 2.47 µM
GI50 [5]: 2.1 µM
TGI [5]: 5.59 µM
GI50 [6]: 2.35 µM
TGI [6]: 5.17 µM
GI50 [7]: 1.7 µM
TGI [7]: 3.25 µM
GI50 [8]: 1.57 µM
TGI [8]: 3 µM
GI50 [9]: 1.88 µM
TGI [9]: 3.9 µM
GI50 [10]: 2.25 µM
TGI [10]: 8.41 µM

CC(C)[NH-].CC(C)[NH-].O.O.[Cl][Pt+2][Cl]
GI50 [1]: 23.1 µM
TGI [1]: 137 µM
GI50 [2]: 39.1 µM
TGI [2]: 179 µM
GI50 [3]: 56 µM
TGI [3]: 266 µM
GI50 [4]: 47.3 µM
TGI [4]: 160 µM
GI50 [5]: 190 µM
TGI [5]: 467 µM
GI50 [6]: 19 µM
TGI [6]: 91.6 µM
GI50 [7]: 21.2 µM
TGI [7]: 59.9 µM
GI50 [8]: 33.8 µM
TGI [8]: 126 µM
GI50 [9]: 42.9 µM
TGI [9]: 149 µM
GI50 [10]: 10.2 µM
TGI [10]: 132 µM

CCN(CC)CCCC(C)Nc1c2ccc(Cl)cc2nc2cc(OC)c(OC)cc12 (stereo not drawn)
GI50 [1]: 1.35 µM
TGI [1]: 7.54 µM
GI50 [2]: 2.4 µM
TGI [2]: 8.77 µM
GI50 [3]: 3.87 µM
TGI [3]: 17.8 µM
GI50 [4]: 1.64 µM
TGI [4]: 3.19 µM
GI50 [5]: 1.99 µM
TGI [5]: 5.04 µM
GI50 [6]: 2.64 µM
TGI [6]: 5.73 µM
GI50 [7]: 1.81 µM
TGI [7]: 3.21 µM
GI50 [8]: 1.46 µM
TGI [8]: 5.57 µM
GI50 [9]: 1.5 µM
TGI [9]: 3.24 µM
GI50 [10]: 0.594 µM
TGI [10]: 12.6 µM

Cc1ccc(C(=O)N2CCN(C(=O)c3ccc(C)cc3)c3ccccc32)cc1
TGI [1]: > 100 µM
TGI [2]: > 100 µM
TGI [3]: > 100 µM
TGI [4]: 11.9 µM
TGI [5]: > 100 µM
TGI [6]: > 39.6 µM
TGI [7]: 43.5 µM
TGI [8]: 43.2 µM
TGI [9]: > 43.1 µM
TGI [10]: > 46.4 µM

Cn1c(/C=C(\C#N)c2cccc(C(F)(F)F)c2)nc2c(N3CCOCC3)nc(Cl)nc21
GI50 [1]: 0.377 µM
TGI [1]: 1.4 µM
GI50 [2]: 0.344 µM
TGI [2]: 4.03 µM
GI50 [3]: 0.569 µM
TGI [3]: 1.96 µM
GI50 [4]: 1.25 µM
TGI [4]: 2.52 µM
GI50 [5]: 1.72 µM
TGI [5]: 3.14 µM
GI50 [6]: 1.47 µM
TGI [6]: 2.96 µM
GI50 [7]: 1.6 µM
TGI [7]: 2.97 µM
GI50 [8]: 1.43 µM
TGI [8]: 2.82 µM
GI50 [9]: 1.83 µM
TGI [9]: 3.93 µM
GI50 [10]: 0.381 µM
TGI [10]: 1.55 µM

COc1ccc2nc3cc([N+](=O)[O-])ccc3c(NCCCN(CCO)CCO)c2c1
GI50 [1]: 3.15 µM
TGI [1]: 12.3 µM
GI50 [2]: 1.94 µM
TGI [2]: 4.77 µM
GI50 [3]: 5.58 µM
TGI [3]: 12.8 µM
GI50 [4]: 7.63 µM
TGI [4]: 20.3 µM
GI50 [5]: 5.95 µM
TGI [5]: 22 µM
GI50 [6]: 1.49 µM
TGI [6]: 3.2 µM
GI50 [7]: 1.8 µM
TGI [7]: 4.69 µM
GI50 [8]: 4.09 µM
TGI [8]: 21.1 µM
GI50 [9]: 9 µM
TGI [9]: 22.3 µM
GI50 [10]: 2.59 µM
TGI [10]: 5.99 µM

O=C1c2cc(-c3ccccc3)ccc2-c2c1c1ccc([N+](=O)[O-])cc1c(=O)n2CCCBr
GI50 [1]: > 50 µM
TGI [1]: > 50 µM
TGI [2]: > 12.2 µM
GI50 [3]: > 50 µM
TGI [3]: > 50 µM
GI50 [4]: > 28.7 µM
TGI [4]: > 50 µM
GI50 [5]: 17.5 µM
TGI [5]: > 50 µM
GI50 [6]: > 50 µM
TGI [6]: > 50 µM
GI50 [7]: > 50 µM
TGI [7]: > 50 µM
GI50 [8]: > 31.7 µM
TGI [8]: > 50 µM
GI50 [9]: > 37.4 µM
TGI [9]: > 50 µM
GI50 [10]: > 50 µM
TGI [10]: > 50 µM

COc1ccc(-c2cn(-c3cccc(C(=O)/C=C/c4ccc(O)c(OC)c4)c3)c(=O)[nH]2)cc1
GI50 [1]: 2.42 µM
TGI [1]: 6.22 µM
GI50 [2]: 4.71 µM
TGI [2]: > 37.7 µM
GI50 [3]: 3.32 µM
TGI [3]: 22.8 µM
GI50 [4]: 2.12 µM
TGI [4]: 5.53 µM
GI50 [5]: 7.38 µM
TGI [5]: > 85.4 µM
GI50 [6]: 4.72 µM
TGI [6]: > 58.1 µM
GI50 [7]: 2.69 µM
TGI [7]: 11 µM
GI50 [8]: 4.32 µM
TGI [8]: 24.5 µM
GI50 [9]: 11.2 µM
TGI [9]: > 85.4 µM
GI50 [10]: 2.87 µM
TGI [10]: > 23.8 µM

O=CC(Br)C(Br)c1ccccc1 (stereo not drawn)
GI50 [1]: 0.776 µM
TGI [1]: 2.33 µM
GI50 [2]: 0.963 µM
TGI [2]: 6.84 µM
GI50 [3]: 2.77 µM
TGI [3]: 8.47 µM
GI50 [4]: 1.87 µM
TGI [4]: 4.36 µM
GI50 [5]: 1.74 µM
TGI [5]: 3.56 µM
GI50 [6]: 2.85 µM
TGI [6]: 9.11 µM
GI50 [7]: 3.58 µM
TGI [7]: 13.8 µM
GI50 [8]: 2.5 µM
TGI [8]: 6.46 µM
GI50 [9]: 12.8 µM
TGI [9]: 27.7 µM
GI50 [10]: 0.904 µM
TGI [10]: 3.89 µM

CN1CCC(C(=O)Nc2n[nH]c3nc(-c4ccc(O)cc4)c(Br)cc23)CC1
GI50 [1]: 0.975 µM and 0.254 µM
TGI [1]: > 25 µM
GI50 [2]: 1.04 µM and 0.404 µM
TGI [2]: > 25 µM
GI50 [3]: 1.6 µM and 2.31 µM
TGI [3]: 16.4 µM and 16.9 µM
GI50 [4]: 0.647 µM and 0.946 µM
TGI [4]: 3.23 µM and 8.15 µM
GI50 [5]: 3.16 µM and 6.15 µM
TGI [5]: 15.3 µM and 17.1 µM
GI50 [6]: 0.692 µM and 1.66 µM
TGI [6]: 2.32 µM and 5.75 µM
GI50 [7]: 0.599 µM and 1.3 µM
TGI [7]: 2.3 µM and 4.14 µM
GI50 [8]: 3.58 µM and 3.13 µM
TGI [8]: 21.4 µM and 24.8 µM
GI50 [9]: 3.94 µM and 3.41 µM
TGI [9]: 20.1 µM and 22.3 µM
GI50 [10]: 1.88 µM and 1.51 µM
TGI [10]: > 25 µM and 18.9 µM
